Assay results: patent publication US20230382925A1, “MODULATORS OF CYSTIC FIBROSIS TRANSMEMBRANE CONDUCTANCE REGULATOR” (VERTEX PHARMACEUTICALS INCORPORATED, priority 2020, published 2023)
Like-named read-outs stand apart in the source and are kept apart here.

Target: CFTR (Homo sapiens, UniProt P13569)
Experiment: Membrane Potential Dye, Enteroid Assay B
Format: cell-based
Method: Base medium (ADF+++) consisted of Advanced […], 2 mM Glutamax, 10 mM HEPES, 1 μg/mL penicillin/streptomycin.
Intestinal enteroid maintenance medium (IEMMN) consisted of ADF+++, 1× B27 supplement, 1× N2 supplement, 1.25 mM N-acetyl cysteine, 10 mM Nicotinamide, 50 ng/mL hEGF, 10 nM Gastrin, 1 μg/mL hR-spondin-1, 100 ng/mL hNoggin, TGF-b type 1 inhibitor A-83-01, 100 μg/mL Primocin, 10 μM P38 MAPK inhibitor SB202190.
Bath 1 Buffer consisted of 1 mM MgCl2, 160 mM NaCl, 4.5 mM KCl, 10 mM HEPES, 10 mM Glucose, 2 mM CaCl2).
Chloride Free Buffer consisted of 1 mM Magnesium Gluconate, 2 mM Calcium Gluconate, 4.5 mM Potassium Gluconate, 160 mM Sodium Gluconate, 10 mM HEPES, 10 mM Glucose.
Bath 1 Dye Solution consisted of Bath 1 Buffer, 0.04% Pluronic F127, 20 μM Methyl Oxonol, 30 μM CaCCinh-A01, 30 μM Chicago Sky Blue.
Chloride Free Dye Solution consisted of Chloride Free Buffer, 0.04% Pluronic F127, 20 μM Methyl Oxonol, 30 μM CaCCinh-A01, 30 μM Chicago Sky Blue.
Chloride Free Dye Stimulation Solution consisted of Chloride Free Dye Solution, 10 μM forskolin, 100 μM IBMX, and 300 nM Compound III.
Human intestinal epithelial enteroid cells were obtained from the Hubrecht Institute for Developmental Biology and Stem Cell Research, Utrecht, The Netherlands and expanded in T-Flasks as previously described (Dekkers J F, Wiegerinck C L, de Jonge H R, Bronsveld I, Janssens H M, de Winter-de Groot K M, Brandsma A M, de Jong N W M, Bijvelds M J C, Scholte B J, Nieuwenhuis E E S, van den Brink S, Clevers H, van der Ent C K, Middendorp S and M Beekman J M. A functional CFTR assay using primary cystic fibrosis intestinal organoids. Nat Med. 2013 July; 19(7):939-45.).
3. Enteroid Cell Harvesting and Seeding
Cells were recovered in cell recovery solution, collected by centrifugation at 650 rpm for 5 min at 4° C., resuspended in TrypLE and incubated for 5 min at 37° C. Cells were then collected by centrifugation at 650 rpm for 5 min at 4° C. and resuspended in IEMM containing 10 μM ROCK inhibitor (RI). The cell suspension was passed through a 40 μm cell strainer and resuspended at 1×10^6 cells/mL in IEMM containing 10 μM RI. Cells were seeded at 5000 cells/well into multi-well plates and incubated for overnight at 37° C., 95% humidity and 5% CO2 prior to assay.
5. Membrane Potential Dye, Enteroid Assay B
Enteroid cells were incubated with test compound in IEMM for 18-24 hours at 37° C., 95% humidity and 5% CO2. […] Briefly, cells were washed 5 times in Bath 1 Buffer. Bath 1 Dye Solution was added and the cells were incubated for 25 min at room temperature. Following dye incubation, cells were washed 3 times in Chloride Free Dye Solution. Chloride transport was initiated by addition of Chloride Free Dye Stimulation Solution and the fluorescence signal was read for 15 min. […] Chloride transport was then expressed as a percentage of the chloride transport following treatment with 1 μM (14S)-8-[3-(2-{Dispiro[2.0.2.1]heptan-7-yl}ethoxy)-1H-pyrazol-1-yl]-12,12-dimethyl-2λ^6-thia-3,9,11,18,23-pentaazatetracyclo[17.3.1.111,14.05,10]tetracosa-1(22),5,7,9,19(23),20-hexaene-2,2,4-trione, 3 μM (R)-1-(2,2-difluorobenzo[d][1,3]dioxol-5-yl)-N-(1-(2,3-dihydroxypropyl)-6-fluoro-2-(1-hydroxy-2-methylpropan-2-yl)-1H-indol-5-yl)cyclopropanecarboxamide and 300 nM acute N-[2,4-bis(1,1-dimethylethyl)-5-hydroxyphenyl]-1,4-dihydro-4-oxoquinoline-3-carboxamide triple combination control (% Activity).

[1] = Table 10, read-out: Ent. B EC50

CFTR, sequence (P13569 with tags, fused parts or gaps DEL508-508): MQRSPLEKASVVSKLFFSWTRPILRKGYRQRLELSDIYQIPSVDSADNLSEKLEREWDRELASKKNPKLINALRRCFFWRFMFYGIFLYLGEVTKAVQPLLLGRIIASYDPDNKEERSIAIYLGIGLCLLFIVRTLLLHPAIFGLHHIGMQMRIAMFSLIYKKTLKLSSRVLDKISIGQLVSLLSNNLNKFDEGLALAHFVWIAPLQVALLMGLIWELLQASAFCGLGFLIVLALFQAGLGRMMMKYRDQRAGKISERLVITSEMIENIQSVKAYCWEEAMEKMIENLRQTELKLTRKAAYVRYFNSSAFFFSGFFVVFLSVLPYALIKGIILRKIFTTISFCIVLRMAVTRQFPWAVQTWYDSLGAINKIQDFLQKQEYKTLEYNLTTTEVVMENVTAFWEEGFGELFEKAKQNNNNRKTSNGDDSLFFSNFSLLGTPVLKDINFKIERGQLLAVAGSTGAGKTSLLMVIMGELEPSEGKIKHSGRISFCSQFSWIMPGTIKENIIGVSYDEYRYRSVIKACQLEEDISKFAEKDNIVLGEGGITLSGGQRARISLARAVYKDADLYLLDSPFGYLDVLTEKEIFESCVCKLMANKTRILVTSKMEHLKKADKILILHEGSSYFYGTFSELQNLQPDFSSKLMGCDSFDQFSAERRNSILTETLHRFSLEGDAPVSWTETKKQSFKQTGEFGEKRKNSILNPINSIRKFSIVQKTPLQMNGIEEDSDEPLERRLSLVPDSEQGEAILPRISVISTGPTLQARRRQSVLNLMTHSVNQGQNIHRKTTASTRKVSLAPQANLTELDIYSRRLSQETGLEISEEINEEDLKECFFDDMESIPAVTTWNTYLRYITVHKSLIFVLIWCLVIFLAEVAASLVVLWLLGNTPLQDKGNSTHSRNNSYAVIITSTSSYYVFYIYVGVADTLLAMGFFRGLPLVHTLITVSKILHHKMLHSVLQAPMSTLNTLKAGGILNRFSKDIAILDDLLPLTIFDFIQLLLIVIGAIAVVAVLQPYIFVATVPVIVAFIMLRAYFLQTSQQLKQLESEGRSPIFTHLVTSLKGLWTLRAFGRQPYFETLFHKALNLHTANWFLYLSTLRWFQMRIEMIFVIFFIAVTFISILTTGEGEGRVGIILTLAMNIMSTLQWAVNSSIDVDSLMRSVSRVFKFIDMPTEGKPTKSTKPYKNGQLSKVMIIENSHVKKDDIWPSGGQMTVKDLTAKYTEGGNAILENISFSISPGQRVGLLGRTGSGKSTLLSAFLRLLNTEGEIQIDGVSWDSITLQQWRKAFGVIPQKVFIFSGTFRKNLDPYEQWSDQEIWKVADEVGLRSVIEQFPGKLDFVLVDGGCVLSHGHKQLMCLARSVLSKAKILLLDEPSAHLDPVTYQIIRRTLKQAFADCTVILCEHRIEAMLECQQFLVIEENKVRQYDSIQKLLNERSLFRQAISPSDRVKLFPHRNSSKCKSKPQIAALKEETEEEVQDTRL

## COC(=O)N1C[C@H]2C[C@@H](C1)C2N1C(=O)c2cccc(c2)S(=O)(=O)Nc2nc(cc(-c3c(C)cccc3C)n2)OC[C@H]1CC(C)(C)C (single isomer, unassigned) [Compound 143]
Table 10
  Ent. B Max Activity (%): ++ (++ is 30-60%)
read-out: Ent. B EC50, Table 10
  EC50: < 1000 nM

## Cc1cccc(C)c1-c1cc2nc(n1)NS(=O)(=O)c1cccc(c1)C(=O)N([C@@H]1CC[C@@H]1C1CC1)[C@H](CC(C)(C)C)CO2 (single isomer, unassigned) [Compound 147]
Table 10
  Ent. B Max Activity (%): ++ (++ is 30-60%)
[1]
  EC50: < 1000 nM

## Cc1cccc(C)c1-c1cc2nc(n1)NS(=O)(=O)c1cccc(c1)C(=O)N([C@@H]1CC[C@@H]1C1CC1)[C@H](CC(C)(C)C)CO2 (single isomer, unassigned) [Compound 148]
Table 10
  Ent. B Max Activity (%): +++ (+++ is >60%)
[1]
  EC50: < 1000 nM

## CO[C@H]1C[C@@H](N2C(=O)c3cccc(c3)S(=O)(=O)Nc3nc(cc(-c4c(C)cccc4C)n3)OC[C@H]2CC(C)(C)C)C1 (single isomer, unassigned) [Compound 150]
  Ent. B Max Activity (%): +++ (+++ is >60%)
read-out: Ent. B EC50
  EC50: < 1000 nM

## CO[C@H]1C[C@@H](N2C(=O)c3cccc(c3)S(=O)(=O)Nc3nc(cc(-c4c(C)cccc4C)n3)OC[C@H]2CC(C)(C)C)C1 (single isomer, unassigned) [Compound 151]
  Ent. B Max Activity (%): +++ (+++ is >60%)
read-out: Ent. B EC50
  EC50: < 1000 nM

## Cc1cccc(C)c1-c1cc2nc(n1)NS(=O)(=O)c1cccc(c1)C(=O)N([C@H]1C[C@@H](CC(C)(C)O)C1)[C@H](CC(C)(C)C)CO2 (single isomer, unassigned) [Compound 152]
Table 10
  Ent. B Max Activity (%): +++ (+++ is >60%)
[1]
  EC50: < 1000 nM

## Cc1cccc(C)c1-c1cc2nc(n1)NS(=O)(=O)c1cccc(c1)C(=O)N([C@H]1C[C@@H](CC(C)(C)O)C1)[C@H](CC(C)(C)C)CO2 (single isomer, unassigned) [Compound 153]
Table 10
  Ent. B Max Activity (%): +++ (+++ is >60%)
[1]
  EC50: < 1000 nM

## CC(=O)NCC[C@H]1C[C@@H](N2C(=O)c3cccc(c3)S(=O)(=O)Nc3nc(cc(-c4c(C)cccc4C)n3)OC[C@H]2CC(C)(C)C)C1 (single isomer, unassigned) [Compound 154]
Table 10
  Ent. B Max Activity (%): +++ (+++ is >60%)
[1]
  EC50: < 1000 nM

## CC(=O)NCC[C@H]1C[C@@H](N2C(=O)c3cccc(c3)S(=O)(=O)Nc3nc(cc(-c4c(C)cccc4C)n3)OC[C@H]2CC(C)(C)C)C1 (single isomer, unassigned) [Compound 155]
Table 10
  Ent. B Max Activity (%): +++ (+++ is >60%)
[1]
  EC50: < 1000 nM

## Cc1cccc(C)c1-c1cc2nc(n1)NS(=O)(=O)c1cccc(c1)C(=O)N([C@H]1C[C@@](C)(OC(F)(F)F)C1)[C@H](CC(C)(C)C)CO2 (single isomer, unassigned) [Compound 156]
Table 10
  Ent. B Max Activity (%): ++ (++ is 30-60%)
[1]
  EC50: < 1000 nM

## Cc1cccc(C)c1-c1cc2nc(n1)NS(=O)(=O)c1cccc(c1)C(=O)N(C1CC(C)(OC(F)(F)F)C1)[C@H](CC(C)(C)C)CO2 (single isomer, unassigned) [Compound 157]
Table 10
  Ent. B Max Activity (%): ++ (++ is 30-60%)
[1]
  EC50: < 1000 nM

## Cc1cccc(C)c1-c1cc2nc(n1)NS(=O)(=O)c1cccc(c1)C(=O)N(C1CC(CO)(C(C)(C)O)C1)[C@H](CC(C)(C)C)CO2 (single isomer, unassigned) [Compound 159]
Table 10
  Ent. B Max Activity (%): +++ (+++ is >60%)
[1]
  EC50: < 1000 nM

## Cc1cccc(C)c1-c1cc2nc(n1)NS(=O)(=O)c1cccc(c1)C(=O)N(C1CC(CO)(C(C)(C)O)C1)[C@H](CC(C)(C)C)CO2 (single isomer, unassigned) [Compound 160]
Table 10
  Ent. B Max Activity (%): +++ (+++ is >60%)
[1]
  EC50: < 1000 nM

## Cc1cccc(C)c1-c1cc2nc(n1)NS(=O)(=O)c1cccc(n1)C(=O)N(C1CC3(C1)CC(C(C)(C)O)C3)[C@H](CC(C)(C)C)CO2 (single isomer, unassigned) [Compound 161]
Table 10
  Ent. B Max Activity (%): +++ (+++ is >60%)
[1]
  EC50: < 1000 nM

## Cc1cccc(C)c1-c1cc2nc(n1)NS(=O)(=O)c1cccc(n1)C(=O)N(C1CC3(C1)CC(C(C)(C)O)C3)[C@H](CC(C)(C)C)CO2 (single isomer, unassigned) [Compound 162]
Table 10
  Ent. B Max Activity (%): +++ (+++ is >60%)
[1]
  EC50: < 1000 nM

## Cc1cccc(C)c1-c1cc2nc(n1)NS(=O)(=O)c1cccc(c1)C(=O)N(C1CC(N)C1)[C@H](CC(C)(C)C)CO2 (single isomer, unassigned) [Compound 165]
Table 10
  Ent. B Max Activity (%): ++ (++ is 30-60%)
[1]
  EC50: < 1000 nM

## Cc1cccc(C)c1-c1cc2nc(n1)NS(=O)(=O)c1cccc(c1)C(=O)N(C1CC(N)C1)[C@H](CC(C)(C)C)CO2 (single isomer, unassigned) [Compound 166]
Table 10
  Ent. B Max Activity (%): ++ (++ is 30-60%)
[1]
  EC50: < 1000 nM

## Cc1cccc(C)c1-c1cc2nc(n1)NS(=O)(=O)c1cccc(c1)C(=O)N([C@H]1C[C@@H](N3CCOC3=O)C1)[C@H](CC(C)(C)C)CO2 (single isomer, unassigned) [Compound 167]
Table 10
  Ent. B Max Activity (%): ++ (++ is 30-60%)
[1]
  EC50: < 1000 nM

## COC(=O)N[C@H]1C[C@@H](N2C(=O)c3cccc(c3)S(=O)(=O)Nc3nc(cc(-c4c(C)cccc4C)n3)OC[C@H]2CC(C)(C)C)C1 (single isomer, unassigned) [Compound 168]
Table 9
  Ent. B Max Activity (%): +++ (+++ is >60%)
Table 9, read-out: Ent. B EC50
  EC50: < 1000 nM

## COC(=O)N(C)C1CC(N2C(=O)c3cccc(c3)S(=O)(=O)Nc3nc(cc(-c4c(C)cccc4C)n3)OC[C@H]2CC(C)(C)C)C1 (single isomer, unassigned) [Compound 169]
Table 10
  Ent. B Max Activity (%): +++ (+++ is >60%)
[1]
  EC50: < 1000 nM

## COC(=O)N(C)C1CC(N2C(=O)c3cccc(c3)S(=O)(=O)Nc3nc(cc(-c4c(C)cccc4C)n3)OC[C@H]2CC(C)(C)C)C1 (single isomer, unassigned) [Compound 170]
Table 10
  Ent. B Max Activity (%): ++ (++ is 30-60%)

## COC(=O)NC1(C)CC(N2C(=O)c3cccc(c3)S(=O)(=O)Nc3nc(cc(-c4c(C)cccc4C)n3)OC[C@H]2CC(C)(C)C)C1 (single isomer, unassigned) [Compound 171]
Table 10
  Ent. B Max Activity (%): +++ (+++ is >60%)
[1]
  EC50: < 1000 nM

## COC(=O)NC1(C)CC(N2C(=O)c3cccc(c3)S(=O)(=O)Nc3nc(cc(-c4c(C)cccc4C)n3)OC[C@H]2CC(C)(C)C)C1 (single isomer, unassigned) [Compound 172]
Table 10
  Ent. B Max Activity (%): +++ (+++ is >60%)
[1]
  EC50: < 1000 nM

## COC(=O)N(C)[C@]1(C)C[C@H](N2C(=O)c3cccc(c3)S(=O)(=O)Nc3nc(cc(-c4c(C)cccc4C)n3)OC[C@H]2CC(C)(C)C)C1 (single isomer, unassigned) [Compound 173]
Table 10
  Ent. B Max Activity (%): ++ (++ is 30-60%)
[1]
  EC50: < 1000 nM
